Legend:
[1] = cited from earlier work
T-tropic HIV = assay: Phenoscreen HIV cellular entry inhibition assay (Monogram Biosciences); details: Human immunodeficiency virus 1, read-out: IC50 value for viral entry inhibition

Structure (SMILES)	side effect in clinical study [1]	IC50 (T-tropic HIV) [µM]
c1cc(CN2CCCNCCNCCCNCC2)ccc1CN1CCCNCCNCCCNCC1 [AMD3100]	cardiac-related side effect	
O=S(=O)(NC1CCCc2ccccc21)c1ccc(CNCc2ccccn2)cc1 (centres unmarked) [DE, 4-((pyridin-2-ylmethylamino)methyl)-N-(1,2,3,4-tetrahydronaphthalen-1-yl)benzenesulfonamide]		≤ 10
O=S(=O)(c1ccc(CNCc2ccccn2)cc1)N(Cc1ccccc1)Cc1nc2ccccc2[nH]1 [DH, N-((1H-benzo[d]imidazol-2-yl)methyl)-N-benzyl-4-((pyridin-2-ylmethylamino)methyl)benzenesulfonamide]		≤ 10
O=S(=O)(c1ccc(CNCCCN2CCOCC2)cc1)N(Cc1ccccc1)Cc1ccccc1 [DX, N,N-dibenzyl-4-((3-morpholinopropylamino)methyl)benzenesulfonamide]		≤ 10
CCNCc1ccc(S(=O)(=O)N(Cc2ccccc2)Cc2ccccc2)cc1 [DZ, N,N-dibenzyl-4-((ethylamino)methyl)benzenesulfonamide]		≤ 10
